Experimental data as given in US20200188388A1, “METHODS AND COMPOSITIONS FOR PO[…] DRUGS AND REDUCING THEIR SIDE EFFECTS” (RVX THERAPEUTICS LTD., priority 2016, published 2020).

What was measured:
Wistar rats [1] = assay: Rotenone model: hyperkinetic side effect in open field test (days 10 and 18); type: in vivo, rat; conditions: locomotive activity in OF test increased more than 50% vs first day
Protocol: (§1) Anti-parkinsonian effect of therapy in rats with rotenone-induced PD was estimated according to elimination of extrapyramidal disorders (catalepsy) and oligokinesia (rapid decreased amplitude and velocity of repeated movements) in the “open field” test. The neuro-protective effect of therapy was evaluated by the elimination of ataxia limb dystonia and mortality in rats with rotenone-induced PSP. Hyperkinetic side action (hyper-locomotion) was evaluated by increased horizontal and vertical activity in the open field at the 10th and 18th day of the experiment, calculated in % compared to the first day of the experiment.
Ataxia and limb dystonia registration was performed twice daily, 30 minutes before administration of rotenone and 180 minutes after administration of rotenone. For each experimental group on a daily basis, throughout the whole period of observation number of rats with severe ataxia and limb dystonia (++−+++) and mortality in % of the total number of rats in group was determined. The neuro-protective effect of therapy (effects on rate of ataxia, limb dystonia and lethality) in rats with PSP was determined at days 12 and 19 of the experiment as reducing the number of rats with severe ataxia limb dystonia and mortality in % compared to control. Side hyperkinetic effects were evaluated in the “open field” test. In this test the locomotive activity in rats is determined. […] Registration of horizontal and vertical locomotive activity in OF assay was performed on the 10th and 18th day of the experiment, within 40 minutes after administration of the substance and 5 minutes before administration of rotenone. Side hyperkinetic effects was evaluated by the number of rats with a significant (at least 50% compared with the first day of the experiment) increase in horizontal and vertical activity (hyperkinesia) as a % of the total number of rats in group.
Anti-parkinsonian effect of therapy in rats with rotenone-induced parkinsonism was estimated according to elimination of extrapyramidal disorders (catalepsy) and oligokinesia in the “open field” test. The neuro-protective effect of therapy was evaluated by the elimination of ataxia and mortality in rats with rotenone-induced PSP. Hyperkinetic side action (hyper-locomotion) was evaluated by increased horizontal and vertical activity in the open field at the 10th and 18th day of the experiment, calculated in % compared to the first day of the experiment.
The neuro-protective effect in the experimental groups of rats with rotenone-induced PSP was evaluated due the elimination of ataxia and mortality caused by neurotoxic action of rotenone. Ataxia is typical incoordination neurotoxic effect of rotenone manifested in uncoordinated movements and hyper-locomotion, replaced by hypokinesia and stereotypes, and in severe cases a complete violation of antigravity reflexes, falling on its side and akinesia. Assessment of the severity of ataxia in scores was performed using the following scale: (+) uncoordinated movement, hyperkinesia; (++) significant incoordination, hypokinesia, stereotypes, falling on its side; (+++) complete violation of antigravity reflexes, akinesia. Ataxia registration was performed twice daily, 30 minutes before administration of rotenone and 180 minutes after administration of rotenone. For each experimental group on a daily basis, throughout the whole period of observation number of rats with severe ataxia (++−+++) and mortality in % of the total number of rats in group was determined. The neuro-protective effect of therapy (effects on rate of ataxia and lethality) in rats with PSP was determined at days 12 and 19 of the experiment as reducing the number of rats with severe ataxia and mortality in % compared to control. Side hyperkinetic effects were evaluated in the “open field” test. In this test the locomotive activity in rats is determined. […]

Wistar rats [2] = assay: Rotenone-induced PD: severe catalepsy on inclined grid; type: in vivo, rat; conditions: for Severe catalepsy (% of group): 45 min before rotenone 2.3 mg/kg, immobilization on inclined grid above 40 seconds; for Severe catalepsy, Day 19: control 58, doses as E38; for Severe catalepsy, Day 12: oral daily 19 days, 45 min before rotenone 2.3 mg/kg IP, levodopa given with benserazide 4:1, control 42, rat dose mg/kg by row (L levodopa, P phenylephrine, M memantine): r12 M2.5, r13 M5, r14 P0.3, r15 L10, r16 L20, r17 L5+P0.3+M1, r18 L10+P0.3+M1
Source text: Rotenone is a specific inhibitor of mitochondrial complex 1, which causes oxidative stress and apoptotic death of dopaminergic and cholinergic neurons in the striatum, substantia nigra and cerebellum. Damage to these neurons causes a decrease in dopamine and acetylcholine levels in the striatum, extrapyramidal disorders (catalepsy, impaired coordination of movements) and oligokinesia typical for PD, as well as ataxia, limb dystonia and mortality characteristic of PSP. Rotenone is used to create a model of PD and PSP in Wistar rats by intraperitoneal introduction of rotenone in a toxic dose of 2.3 mg/kg (Jason R. Cannon et al., Neurobiology of Disease, 2009, Vol. 34, pages 279-290).
Rotenone was dissolved in mixture of DMSO and Miglyol 812N at a ratio of 2:98 at concentration of 2.3 mg/ml. Preparation: 230 mg sample of rotenone in vials was dissolved in 2 ml of DMSO. The solution was poured into a jar with 100 ml. Vials are rinsed twice with 5 ml of Miglyol, washings attached to the main solution and stirred. To this solution was added 88 ml of Miglyol and mixed again. The resulting solution was divided into 3 doses. The solution was stored at −10° C. Each animal was administered 0.2 ml of a solution of rotenone: a dose of 0.46 mg per animal weighing 200±20 g, i.e. 2.3 mg/kg. The solution of rotenone was injected IP one time a day for 19 days.
as §1
The number of animals in the control and experimental groups ranged from 6 to 8.
Levodopa was administered in combination with benserazide (peripheral dopa-decarboxylase inhibitor) at a ratio of 4:1 to reduce the side effects of levodopa, associated with the stimulation of peripheral dopamine receptors (Alam M. et al., Behav. Brain Res., 2004, Vol. 153 (2), pages 439-446). Levodopa with benserazide were dissolved in 1 ml of DW and administered orally in the volume of 1 ml. […] The mixture was administered orally in a volume of 1 ml. Anti-parkinsonian effect in the experimental groups of rats with rotenone has been evaluated by eliminating catalepsy and oligokinesia.
Catalepsy in rats is determined by the time of immobilization of the animal, placed on a large grid predisposed at an angle of 45°. Maximum catalepsy in rats is recorded in the case of their complete immobilization on grid at 120 seconds for observation. The value of catalepsy is evaluated in points: 3 points—immobilization duration from 80 seconds to 120, 2 points—immobilization duration from 40 to 70, 1 point—immobilization duration from 20 to 35, 0 points—the immobilization of less than 20 seconds. Catalepsy was followed in rats daily, 30 minutes before administration of rotenone and 180 minutes after administration of rotenone. For each experimental group, on a daily basis, throughout the period of observation number of rats with severe catalepsy (2-3 points) was determined in % of the total number of rats in group. To assess the anti-cataleptic effects of therapy, on 12th and 19th day of experiment, reduction in the number of rats with severe catalepsy (2-3 points) in % was determined compared to control treated with distilled water.
Anti-parkinsonian effect of therapy in rats with rotenone-induced parkinsonism was estimated according to elimination of extrapyramidal disorders (catalepsy) and oligokinesia in the “open field” test. […]

Row | SMILES | Hyperkmesia (% of group) (Wistar rats [1]; Day 10, levodopa 10 mg/kg oral) | Hyperkmesia (% of group) (Wistar rats [1]; Day 10, levodopa 20 mg/kg oral) | Hyperkmesia (% of group) (Wistar rats [1]; Day 18, levodopa 10 mg/kg oral) | Hyperkmesia (% of group) (Wistar rats [1]; Day 18, levodopa 20 mg/kg oral) | Severe catalepsy (% of group) (Wistar rats [2]; Day 12, levodopa 10 mg/kg oral) | Severe catalepsy (% of group) (Wistar rats [2]; Day 12, levodopa 20 mg/kg oral) | Severe catalepsy (% of group) (Wistar rats [2]; Day 19, levodopa 10 mg/kg oral) | Severe catalepsy (% of group) (Wistar rats [2]; Day 19, levodopa 20 mg/kg oral) | Severe catalepsy, Day 19 (Wistar rats [2]; levodopa 10 mg/kg) | Severe catalepsy, Day 19 (Wistar rats [2]; levodopa 20 mg/kg) | Hyperkmesia (% of group) (Wistar rats [1]; Day 10, memantine 5 mg/kg oral) | Hyperkmesia (% of group) (Wistar rats [1]; Day 18, memantine 5 mg/kg oral) | Severe catalepsy (% of group) (Wistar rats [2]; Day 12, memantine 5 mg/kg oral) | Severe catalepsy (% of group) (Wistar rats [2]; Day 12, memantine […] oral) | Severe catalepsy (% of group) (Wistar rats [2]; Day 19, memantine 5 mg/kg oral) | Severe catalepsy (% of group) (Wistar rats [2]; Day 19, memantine […] oral) | Severe catalepsy, Day 12 (Wistar rats [2]; memantine 2.5 mg/kg) | Severe catalepsy, Day 12 (Wistar rats [2]; memantine 5 mg/kg)
1 | N[C@@H](Cc1ccc(O)c(O)c1)C(=O)O [Levodopa, L-3,4-dihydroxyphenylalanine] | 0 % of group | 88 % of group | 0 % of group | 75 % of group | 28 % of group | 12 % of group | 42 % of group | 24 % of group | 42 % of group | 24 % of group |  |  |  |  |  |  |  | 
2 | CC12CC3CC(C)(C1)CC(N)(C3)C2 [Memantine, memantine] |  |  |  |  |  |  |  |  |  |  | 40 % of group | 60 % of group | 17 % of group | 33 % of group | 17 % of group | 50 % of group | 33 % of group | 17 % of group
